From US10421676B2, “Bactericidal/algicidal method” (priority 2007, dated 2019) come the findings set out here.

The nature of this series: Open-circulating cooling water system, change over time in combined and free chlorine (Example 4 / Comparative Example 1). Format: physicochemical. Particulars: for Combined chlorine: total residual chlorine minus free chlorine (DPD). The source says:
In this open-circulating cooling water system, cooling water is supplied from a cooling tower 1 to a heat exchanger 3 via a cooling water pipe 2 and a pump P, and is returned to the cooling tower 1 via a cooling water pipe 4. The cooling tower 1 (refrigeration capacity: 400 RT, water storage capacity: 30 m^3) was operated at a concentration factor of 5. The cooling tower 1 has a fan F and contains therein air-conditioning cooling water W. The free chlorine concentration of the air-conditioning cooling water W is measured by means of a sensor S and controlled by means of a free chlorine control section 5 and a combined chlorine control section 6. The free chlorine control section 5 includes a chemical tank 51 and a chemical feed inlet 52. Combined chlorine control section 6 includes a chemical tank 61 and a chemical feed inlet 62. The amount of free chlorine or combined chlorine is controlled on the basis of the free chlorine concentration as measured by means of the sensor S employing an ORP electrode.
The amount of free chlorine was controlled through addition of a hypochlorite salt. Chlorosulfamic acid was employed as combined chlorine.
In the water system, chlorosulfamic acid was added so that the chlorine concentration was adjusted to 15 mg-Cl/L with respect to blowing down the cooling water. In the water system, the amount of the hypochlorite salt added was controlled by means of the sensor S so that free chlorine concentration was 0.5 mg-Cl/L. Combined chlorine concentration was measured through the DPD method (determined by use of the following relation: combined chlorine concentration=total residual chlorine concentration−free chlorine concentration).
Flaked slime was non-forcedly discharged through blowing down at an intensity according to the concentration factor, and a forced removal of the slime (e.g., cleaning) was not carried out. Thus, the water system was continuously operated, and change over time in combined chlorine concentration and free chlorine concentration in the water system was observed.
The water system was continuously operated under the same conditions as in Example 4 (i.e., chlorosulfamic acid was added so that the chlorine concentration was adjusted to 15 mg-Cl/L with respect to blowing down the cooling water), except that free chlorine concentration was not controlled.

SMILES strings stand for the structures.

In the case of `O=S(=O)(O)NCl` [Comparative Example 1, Chlorosulfamic acid], the “Combined chlorine concentration, level over the operation period” value (operation period up to 20 days) is recorded as “maintained at low level”. Also, the Free chlorine was 0.0 mg/L (period 1 days); 0.0 mg/L (period 2 days); 0.1 mg/L (period 8 days); 0.0 mg/L (period 14 days); 0.1 mg/L (period 20 days). Moreover, the Combined chlorine is recorded as 3 mg/L (period 1 days); 4 mg/L (period 2 days); 3 mg/L (period 8 days); 2 mg/L (period 14 days); 4 mg/L (period 20 days).
